This is an account of results in US6465432B1, “Isolated antioxidant peptides form casein and methods for preparing, isolating, and identifying antioxidant peptides” (Kraft Food Holdings, Inc., priority 2000, dated 2002).

Holding throughout (type): biochemical
Assay [1] can be described thus: Total reducing power assay using ABTS radical. The settings on record: for antioxidative activity in the ABTS radical assay: HPLC-isolated fractions of Phase I, concentrations not adjusted after HPLC; for reducing power in terms of scavenging pre-formed ABTS radical: synthesized peptide 0.0832 mM, Trolox 0.0208 mM, n=5. As to the method:
(§1) Phase I fractions of the protein hydrolysates generated with various proteases in Example 1 were analyzed for their ability to prevent accumulation of free radicals derived from 2,2′-azino-bis(3-ethylbenzthiazoline-6-sulfonic acid) (ABTS). Both total antioxidative activity and total reducing power of protein hydrolysate using ABTS and preformed ABTS radical, respectively, were used. These two model systems allowed mechanistic information of antioxidative activity of protein hydrolysates to be obtained. Furthermore, the analysis provided specific data related to whether the protein hydrolysates have the capacity of scavenging radicals in an oxidation system.
Total reducing power assays using ABTS radical were performed according to the methods of Pellegrini et al., “Screening of Dietary Carotenoids and Carotenoid-Rich Fruit Extracts for Antioxidant Activities Applying 2,2 ′-Azinobis(3-ethylenebenzothiazoline-6-sulfonic acid Radical Cation Decolorization Assay,” Methods in Enzymology 299:379 (1999). This assay measures antioxidant capability as reducing power in terms of scavenging pre-formed ABTS radical. Equal volumes of lOmM PBS and sample (Phase I hydrolysate fractions as described in Example 1) were combined and 2.5 times the total volume (i.e., PBS and sample combined) of a working solution of ABTS radical was added. The mixture was agitated and absorbance at 734 nm was measured after 10 minutes of incubation at […]. Acetone or PBS was used as a blank where appropriate. The working solution of ABTS radical was prepared by adding 1 volume of a ABTS radical stock solution to 80 volumes of 10 mM PBS (pH 7.0) and adding, if necessary, PBS or ABTS stock solution to adjust the absorbance to about 0.83 at 734 nm. The ABTS radical stock solution contained 2.5 mM K2S2O8 and 6.9 mM ABTS.

Assay [2] in a line: ABTS total antioxidative activity assay (ABTS, metmyoglobin, H2O2; absorbance at 734 nm). The method, then: as §1
Total antioxidant assays using ABTS were performed according to Cox et al., “Biological assays for cellular transformation,” Methods in Enzymology 238:277 (1994); and Plumb et al., “Are Whole Extracts and Purified Glucosinolates from Cruciferous Vegetables Antioxidants?,” Free Rad. Res. 25:75 (1996). The assay was performed in a total volume of 1.2 ml. Twenty-five microliters of sample (Phase I hydrolysate fractions as described in Example 1 or Trolox standard (2.5 mM) (Aldrich, Milwaukee, Wis.) were combined with 100 μl of ABTS solution (2.5 mM ABTS (Sigma, St. Louis, Mo.) in PBS), 180 μl of MetMb solution (50 μM Metmyoglobin made from mixing 1:1 v/v of 100 µM myoglobin (Sigma, St. Louis, Mo.) and 100 μM Metmyoglobin (Sigma, St. Louis, Mo.); and 100 μM potassium ferricyanide (Aldrich, Milwaukee, Wis.) in PBS), and 775 μl PBS. One-hundred and 20 microliters of 10 mM H2O2 were then added. The mixture was agitated and absorbance was read at 734 nm over a period of 10-15 min.

The nature of assay [3]: Hydroxyl radical (Fenton) assay. The conditions noted are these: synthesized peptide 0.2083 mM, Trolox 0.0521 mM; n=5; FIG. 22. The method, then:
An analysis was performed to evaluate the ability of the peptide samples (Phase I and II hydrolysate fractions as described in Example 1) to quench the hydroxyl radical. The hydroxyl radical is an exceptionally active agent that reacts nonselectively with all organic constituents of food. Consequently, it can directly initiate lipid oxidation in food systems. The capacity to quench hydroxyl radicals, therefore, should theoretically be a very important characteristics for food antioxidants.
The hydroxyl radical (Fenton) assay was performed according to the methods of Lee, B. J., et al., “Antioxidant effects of L-carnosine on liposomes and beef homogenates,” J. Food Sci. 62:931 (1997). For this assay, 945 μl buffer (0.1 M phosphate buffer, pH 7.4), 60 μl EDTA-FeCl3 solution (92 mM EDTA, 26 mM FeCI3 in 0.1 M phosphate buffer pH 7.4), 25 μl sample (Phase I and II hydrolysate fractions as described in Example 1 or Trolox standard (2.5 mM)), and 120 μl of 1 mM H2O2 were combined. To this solution, 50 μl of a deoxyribose-ascorbic acid solution (67 mM deoxyribose, 4.8 mM ascorbic acid, in 01 M phosphate buffer pH 7.4) was added, and the solution was mixed and incubateded at 37° C. for 1 hr. […] Absorbance of the solution is then read at 532 nm after cooling to room temperature. […]

[4] abbreviates: synthesized peptide 0.0832 mM, Trolox 0.0208 mM, n=5.

No end group written: not given here. Some results are limits rather than exact numbers.

Regarding “AYFYPE [fragment of alpha S1-casein (amino acid residue 158˜163) from bovine milk]”, in assay [1], the “antioxidative activity in the ABTS radical assay” value was “strong antioxidative activity” and the “reducing power in terms of scavenging pre-formed ABTS radical” value (from here on “reducing power in terms”) is listed as “strong antioxidative activity”. Moreover, the “time within which oxidation reached maximal levels” value in assay [2] (synthesized peptide 0.0832 mM) is at most 1.5 h. Besides, the total antioxidative activity entry in assay [2] (setting [4]) is given as “significant (p<0.05) when compared to PBS controls”.
Turning to `Cc1c(C)c2c(c(C)c1O)CCC(C)(C(=O)O)O2` (centres unmarked) [Trolox, reference compound], the total antioxidative activity result in assay [2] (Phase I of milk protein hydrolysates, FIG. 2, PBS negative control, Trolox positive control) is “typical delay of initiation or lag phase of the oxidation system”. Besides, the “time until after which oxidation was virtually totally suppressed” value in assay [2] (Trolox 0.0208 mM) is over 2 h.
Consider “Gln-Phe-Tyr [cyclic QFY] (not fully specified (bridges); printed as Gln-Phe-Tyr [cyclic QFY]; also: cyclic, kind not given here) [cyclic tripeptide, fragment of alpha S1-casein (amino acid residues 167-169) from bovine milk]”, for which, in assay [3], the “capacity to quench hydroxyl radicals” value was “slightly stronger capacity to quench hydroxyl radicals”. Moreover, in assay [1], the “antioxidative activity in the ABTS radical assay” value is recorded as “strong antioxidative activity” and the “reducing power in terms” value is given as “significantly (p<0.05) scavenged pre-formed ABTS radical”. The total antioxidative activity entry in assay [2] (setting [4]) is listed as “slightly stronger antioxidative activity”.
In the case of “LAYFYPE (Bovine) [Leu-Ala-Tyr-Phe-Tyr-Pro-Glu]”, the “antioxidative activity in the ABTS radical assay” value in assay [1] was “strong antioxidative activity”.
As for Gln-Phe-Tyr [linear QFY], in assay [3], the “capacity to quench hydroxyl radicals” value was “possess the capacity to quench hydroxyl radicals”. Besides, the “reducing power in terms” value in assay [1] is “significantly (p<0.05) scavenged pre-formed ABTS radical”. The total antioxidative activity result in assay [2] (setting [4]) was “have antioxidative activity”.
Turning to “YLGYLE [fragment of alpha S1-casein (amino acid residues 106˜111) from bovine milk]”, the “antioxidative activity in the ABTS radical assay” value in assay [1] is reported as “strong antioxidative activity”.
“RYLGYLE (Bovine) [Arg-Tyr-Leu-Gly-Tyr-Leu-Glu, fragment of alpha S1-casein (amino acid residues 105˜111) from bovine milk]”: in assay [1], the “antioxidative activity in the ABTS radical assay” value is “strong antioxidative activity” and the “reducing power in terms” value was “statistically significant when compared to PBS controls”.
